Results taken from patent US20200376035A1, “METHODS AND COMPOSITIONS COMPRISING CART AND A SMAC MIMETIC” (THE TRUSTEES OF THE UNIVERSITY OF PENNSYLVANIA, priority 2018, published 2020).
*1 amine or outer side, *2 acyl side, *3 side chain or, on linkers, in order; H or OH if unused. Where a SMILES comes first, the peptide text is derived from it. Bridges are numbered along the chain shown (N, C = ends). Roman numbers before positions name the chains, in order. [ ]: non-standard residue; d: D form. Hexamethylenediamine = C(CCCN[*:2])CCN[*:1]; Dip = N[C@H](C(=O)O)C(c1ccccc1)c1ccccc1; Chg = N[C@H](C(=O)O)C1CCCCC1; NMeA = CN[C@@H](C)C(=O)O

Experiments:
[1] = system: HER2+ human ovarian cancer cell line (SKOV3); assay: SMAC mimetics with anti-HER2 CAR T (4D5) against SKOV3, luminescence and XCelligence; format: cell-based; conditions: SKOV3 + anti-HER2 CAR T (4D5), 50 nM drug vs DMSO
Experimental: FIGS. 12A-12B illustrate the synergistic killing of solid tumors using CAR cells in combination with SMAC mimetics. […] E:T ratio=0.01:1, [Drug]=50 nM. 24 h co-culture, A human ovarian cell line expressing endogenous HER2 and luciferase reporter (SKOV3 CBG-T2A-GFP) was seeded at density of 10^4 cells/100 μl of media in each well of 96 well plate and grown overnight. Next day, CAR T cells (4D5; Liu et al. Cancer Research 2015; (75)(17):3596-607, incorporated by reference herein in its entirety) were introduced at E:T ratio=0.01:1 50 nM of SMAC mimetics or corresponding amounts of DMSO. After 48 hours, luciferin was added to the cells and luminescence was detected using a luminometer (Biotek Synergy H4). Tumor killing was calculated using the formula: (sample-tumor treated with DMSO)/(lysis control-tumor treated with DMSO). A human ovarian adenocarcinoma cell line (SKOV3) expressing endogenous HER2 was cultured in the presence or absence of human T cells expressing a chimeric antigen receptor against HER2 at a 1:1 CART:Tumor ratio. Cells were treated with 50 nM of birinapant ([…]), BV6, AZD5582 or corresponding amounts of DMSO. Tumor killing was monitored in real-time using the impedance-based […]@ system (ACEA Biosciences, Inc).

[2] = system: CD19+ Luc+ NALM-6 leukemia cell line; assay: High-throughput screen of small molecule library for CART-enhancing compounds (luminescence, 48 hours); format: cell-based, human; conditions: for effect on CART killing activity in the screen: NALM-6 + CART19, 0.3:1 E:T ratio
Experimental: FIG. 6 illustrates a high-throughput platform to identify CART-enhancing bioactive compounds. The CD19+ Luc+ NALM-6 leukemia cell line was plated at 0.3:1 E:T ratio+/− CART19 using an automated dispenser, Small molecules from a custom-made library (SelleckChem) were then added via an automated workstation and luminescence was detected after 48 hours with a high-throughput plate reader.
FIG. 7 illustrates that birinapant enhances CART cell cytotoxicity. Screening results: total cytotoxicity (%) of small molecules alone (Y axis) or in combination with CART (X axis). Birinapant is represented by the dot at the “40” mark on the X axis (●).
An unbiased, reliable, automated, high-throughput system was generated to test thousands of different combinations of CART and small molecules. […] Subsequently, 2,615 different small molecules were added (1 per well). More than half of these drugs are FDA-approved. After 48 hours, tumor luminescence was recorded and percentage tumor killing was calculated. This platform has already generated several significant hits. See FIG. 7, birinapant in grey, represented by the dot at the “40” mark on the X axis (●). Thus, small molecules enhancing CART killing can be identified.
Birinapant was the only SMAC mimetic in the library.

[3] = system: human pre-B ALL cell line (NALM6 CBG-T2A-GFP); assay: CART19 (CTL019) killing of NALM6 with birinapant, luciferase readout after 72 hours; format: cell-based; conditions: NALM6 + CTL019 at different ratios, different doses of birinapant vs DMSO
Experimental: FIG. 1A is a graph showing the percentage of tumor killing by CART as a result of increasing concentrations of birinapant or corresponding amounts of DMSO as a control. FIG. 1B is a graph showing the percentage of tumor killing by CART as a function of CART:Tumor ratio. For FIGS. 1A-1B, a human pre-B ALL cell line expressing endogenous CD19 and a luciferase reporter (NALM6 CBG-T2A-GFP) was cultured in the presence or absence of human T cells expressing a chimeric antigen receptor against CD19 (CTL019, KYMRIAH®) at different ratios. Cells were treated with different doses of birinapant (TL32711, Medivir) or corresponding amounts of DMSO. After 72 hours luciferin was added to the cells and luminescence was detected using a luminometer (Biotek Synergy H4). Tumor killing was calculated using the formula: (sample−tumor treated with DMSO)/(lysis control−tumor treated with DMSO). […]
A human pre-B ALL cell line expressing endogenous CD19 and a luciferase reporter (NALM6 CBG-T2A-GFP) was cultured in the presence or absence of human T cells expressing a chimeric antigen receptor against CD19 (CTL019, KYMRIAH®) at different ratios. […] After 72 hours luciferin was added to the cells and luminescence was detected using a luminometer (Biotek Synergy H4). Tumor killing was calculated using the formula: (sample−tumor treated with DMSO)/(lysis control−tumor treated with DMSO). […]

[4] = system: human ovarian adenocarcinoma cell line (SKOV3); assay: Anti-HER2 CART (CAR 4D5) killing of SKOV3 with birinapant, impedance-based XCelligence; format: cell-based; conditions: SKOV3 + CAR 4D5, 1:1 CART:Tumor ratio, different doses of birinapant vs DMSO, real-time impedance
Experimental: FIG. 2A is a graph showing the growth and clearance of tumor cells over time. At approximately 21 h (vertical line) tumor cells were treated with only Birinapant (solid lines) or Birinapant and CART cells (dotted lines, 1:1 CART:Tumor ratio). FIG. 2B is analogous to FIG. 2A except for the addition of DMSO instead of Birinapant. FIGS. 2C and 2D summarize the results of FIGS. 2A and 2B, respectively (10 nM Birinapant or DMSO). For FIGS. 2A-2D, a human ovarian adenocarcinoma cell line (SKOV3) expressing endogenous HER2 was cultured in the presence or absence of human T cells expressing a chimeric antigen receptor against HER2 (CAR 4D5) at a 1:1 CART:Tumor ratio, Cells were treated with different doses of birinapant (TL32711, Medivir) or corresponding amounts of DMSO. Tumor killing was monitored in real-time using the impedance-based XCelligence® system (ACEA Biosciences, Inc),
A human ovarian adenocarcinoma cell line (SKOV3) expressing endogenous HER2 was cultured in the presence or absence of human T cells expressing a chimeric antigen receptor against HER2 (CAR 4D5; Liu et al. Cancer Research 2015; (7517):3596-607, incorporated by reference herein in its entirety) at a 1:1 CART:Tumor ratio. […] Tumor killing was monitored in real-time using the impedance-based XCelligence® system (ACEA Biosciences, Inc).

[5] = system: human pre-B ALL cell line (NALM6 CBG-T2A-GFP); assay: Birinapant-enhanced CART19 killing of NALM6 with TNF antibodies, 72 hours; format: cell-based; conditions: NALM6 + CTL019, 1 μM birinapant with isotype control or TNF antibodies
Experimental: (§1) A human pre-B ALL cell line expressing endogenous CD19 and a luciferase reporter (NALM6 CBG-T2A-GFP) was cultured in the presence or absence of human T cells expressing a chimeric antigen receptor against CD19 (CTL019, KYMRIAH®). Cells were either treated with 1 μM of birinapant (TL32711, Medivir), corresponding amounts of DMSO or 1 μM birinapant (TL32711, Medivir) in combination with different amounts of isotype control or TNF antibodies. After 72 hours, luciferin was added to the cells and luminescence was detected using a luminometer (Biotek Synergy H4), Tumor killing was calculated using the formula: (sample−tumor treated with DMSO)/(lysis control−tumor treated with DMSO).
as §1, with “μM” for “μM of”, “and” for “in combination with”, “H4).” for “H4),”

| Structure (SMILES) | CART killing of solid tumor cell lines [1] | effect on CART killing activity in the screen [2] | also measured |
| --- | --- | --- | --- |
| CN[C@@H](C)C(=O)N[C@H](C(=O)N1CCC[C@H]1C(=O)N[C@H]1c2ccccc2C[C@H]1OCC#CC#CCO[C@@H]1Cc2ccccc2[C@@H]1NC(=O)[C@@H]1CCCN1C(=O)[C@@H](NC(=O)[C@H](C)NC)C1CCCCC1)C1CCCCC1 [AZD5582, (2S,2′S)-N,N′-((S,1′S,2R,2′R)-(hexa-2,4-diyne-1,6-diylbis(oxy))bis(2,3-dihydro-1H-indene-2,1-diyl))bis(1-((S)-2-cyclohexyl-2-((S)-2-(methylamino)propanamido)acetyl)pyrrolidine-2-carboxamide)] | enhance CART killing of solid tumor cell lines |  |  |
| CCCCCCCCCCCC1=C(O)C(=O)C=C(O)C1=O [Embelin, 2,5-Dihydroxy-3-undecyl-2,5-cyclohexadiene-1,4-dione] |  | Neither Embelin nor GDC-0152 revealed a significant effect on CART killing activity |  |
| CC[C@H](NC(=O)[C@H](C)NC)C(=O)N1C[C@@H](O)C[C@H]1Cc1c(-c2[nH]c3cc(F)ccc3c2C[C@@H]2C[C@H](O)CN2C(=O)[C@H](CC)NC(=O)[C@H](C)NC)[nH]c2cc(F)ccc12 [birinapant, (2S)-N-[(2S)-1-[(2R,4S)-2-[[6-fluoro-2-[6-fluoro-3-[[(2R,4S)-4-hydroxy-1-[(2S)-2-[[(2S)-2-(methylamino)propanoyl]amino]butanoyl]pyrrolidin-2-yl]methyl]-1H-indol-2-yl]-1H-indol-3-yl]methyl]-4-hydroxypyrrolidin-1-yl]-1-oxobutan-2-yl]-2-(methylamino)propanamide] | enhance CART killing of solid tumor cell lines |  | total cytotoxicity (%) of small molecules in combination with CART (X axis) ([2]; FIG. 7, NALM-6 + CART19, 0.3:1 E:T ratio): 40%; CART killing of leukemic cell lines [3]: enhances CART killing of leukemic cell lines; CART killing of solid tumor cell lines [4]: enhances CART killing of solid tumor cell lines; TNF dependence of enhanced CART killing of tumor [5]: birinapant-enhanced CART killing of tumor is TNF-dependent |
| CN[C@@H](C)C(=O)N[C@H](C(=O)N1CCC[C@H]1C(=O)Nc1snnc1-c1ccccc1)C1CCCCC1 [GDC-0152, (S)-1-((S)-2-cyclohexyl-2-((S)-2-(methylamino)propanamido)acetyl)-N-(4-phenyl-1,2,3-thiadiazol-5-yl)pyrrolidine-2-carboxamide] |  | Neither Embelin nor GDC-0152 revealed a significant effect on CART killing activity |  |
| CN[C@@H](C)C(=O)N[C@H](C(=O)N1CCC[C@H]1C(=O)N[C@H](C(=O)NCCCCCCNC(=O)[C@@H](NC(=O)[C@@H]1CCCN1C(=O)[C@@H](NC(=O)[C@H](C)NC)C1CCCCC1)C(c1ccccc1)c1ccccc1)C(c1ccccc1)c1ccccc1)C1CCCCC1 [BV6, ((S,S,2S,2′S)-N,N′-((2S,2′S)-(hexane-1,6-diylbis(azanediyl))bis(3-oxo-1,1-diphenylpropane-3,2-diyl))bis(1-((S)-2-cyclohexyl-2-((S)-2-(methylamino)propanamido)acetyl)pyrrolidine-2-carboxamide))] (I: H-[NMeA][Chg]P[Dip] / II: H-[NMeA][Chg]P[Dip]; linker I:C-II:C via Hexamethylenediamine) | enhance CART killing of solid tumor cell lines |  |  |
